We go through two molecules from paper PMC9241057, “Ru(II)arene(N^N bpy/phen)-based RAPTA complexes for in vitro anti-tumour activity in human glioblastoma cancer cell lines and in vivo toxicity studies in a zebrafish model” (RSC Advances, 2022).

One series has as its system Ct-DNA. The series can be described thus: DNA binding study, UV-visible absorption titration. Also noted: species or system calf. How it is done: The DNA binding proficiency of RAPTA complexes was explored by applying the concept of electronic absorption titration. The binding propensity of the RAPTA complex, 4c with Ct-DNA, was investigated using UV-visible studies. […] From the plot of [DNA]/(εa − εf) vs. [DNA] the intrinsic binding constant (Kb) was recognized for the specified 4c–DNA conjugate.
The binding capability of the complexes with calf-thymus DNA (Ct-DNA) was evaluated using electronic absorption spectroscopy, and the competitive binding assay was studied using ethidium bromide (EtBr) as a quencher by fluorescence spectroscopy.
The DNA binding experiment was performed in aqueous medium using RAPTA complex 4c in Tris-HCl buffer (5 mM Tris-HCl in water, pH 7.4). The concentration of Ct-DNA was determined using its absorbance at 260 nm and a known molar absorption coefficient of 6600 M-1.cm-1. In cuvettes, an equal amount of DNA was introduced to both the sample and the reference. […] The sample was equilibrated with CT-DNA for around 5 minutes before each measurement, and then the complex's absorbance was measured. The intrinsic DNA binding constant (K b) was calculated using the equation (i): […]
UV and Fluorescence study
All of these RAPTA complexes were studied in a 10% DMSO solution using UV and fluorescence. […] Quantum yield was calculated according to the equation (ii): […]

In a further series the test system is EtBr-bound DNA (Ct-DNA). The experiment in a line: EtBr displacement assay (fluorescence). In kind it is binding, calf. To be noted: for Ksv, Stern-Volmer quenching constant: EtBr-bound DNA; for Kapp, apparent DNA binding constant: competitive displacement of EtBr. On the procedure: Ethidium bromide displacement assay […]
bromide (EtBr) displacement experiment was used.3 Using ethidium bromide (EtBr) as a spectral probe in 5 mM Tris-HCl buffer, the apparent binding constant (K app) of the RAPTA complex 4c to Ct-DNA was determined at pH = 7.4. Because the fluorescence of EtBr was quenched by the solvent molecules, it was unable to show any fluorescence in its free state.
However, in the presence of Ct-DNA, its fluorescence intensity began to increase, indicating that EtBr binds to DNA […] in an intercalative manner. With increasing concentrations of […]
complexes displaced EtBr from CT-DNA grooves and were linked to the DNA base pairs itself. The values of the apparent binding constant (K app) were obtained by using the equation […]
Kapp × [Complex]50 = kEtBr × [EtBr]⋯⋯⋯(iii)
Where KEtBr is the EtBr binding constant (K EtBr = 1.0 x 107 M-1), and [EtBr] = 8 x 10^-6 M.
Stern-Volmer equation was followed for quantitative determination of the Stern-Volmer quenching constant (K SV).4 Origin (8.5) software was used to plot the fluorescence data to obtain linear plot of I0/I vs. [complex]. The value of KSV was calculated from the following […]
Where I0 = fluorescence intensity in absence of complex and I = fluorescence intensities in presence of complex of concentration [Q]. […]

The subject of a further series is zebrafish. The experiment in a line: In vivo biodistribution study in zebrafish. Conditions: 25 μg g^−1, 15 minutes. How it is done:
Biodistribution and sequestration studies of complex 4c were conducted via the caudal vein injection into the zebrafish. After 15 minutes (25 μg g^−1) of exposure, the fish were sacrificed and different organs (brain, heart, kidney, intestine, notochord and digestive system) were dissected and the biodistribution of this complex into these organs was measured by fluorescence microscopy. A comparative study was performed with complex 4c and Evans blue dye and was analyzed by the confocal imaging of the tissue sections. From this experiment, it was observed that the sensitivity of zebrafish towards 4c was sequestered in the brain, heart, kidney, intestine, notochord and digestive system. […] Furthermore, this fluorescence-based interaction could provide us with an idea of the uptake mechanism via crossing the blood–brain barrier.
Zebrafish were anesthetized with 2-phenoxyethanol and injected with complex 4cvia […]. After injection at different times, the fish were sacrificed and the organs were collected and fixed with 4% paraformaldehyde and 4% glutaraldehyde, followed by dehydration with the gradient increase of ethanol (75%, 95%, 100%) for 20 min each, further with xylene for 1 h and then fixed in Paraplast. […] Sequestration of complex 4c in different organs was investigated by confocal fluorescence microscopy using a CLSM (Zeiss LSM 710) microscope. […]

Series [1] can be described thus: n-Octanol/water partition coefficient, shake-flask method.
Protocol: n-Octanol–water partition coefficient (log P o/w)8
Using the previously reported shake flask approach, the log Po/w of the RAPTA complexes
followed the previously described procedure. An orbital shaker was used to shake a known
amount of each complexes in water (pre-saturated with n-octanol). The solution was
centrifuged at 3000 rpm for 10 minutes to allow phase separation. Different ratios (0.5:1, 1:1,
and 2:1) of saturated solutions were shaken for 20 minutes on an orbital shaker with pre-
saturated n-octanol to get the partition coefficient. The absorbance of aliquots of the aqueous
and octanol layers were measured with a UV-Vis spectrophotometer after adequate dilution.
The concentrations of the complexes in each layer were estimated using the corresponding
molar extinction coefficients, and the partition coefficient (log Po/w) values were computed
A further series has as its system U87MG cells. The series can be described thus: Cell cycle analysis by flow cytometry. Type of series: cell-based, human. Conditions: 0.93 μM. On the procedure:
As per the results of the MTT assay, there was an inhibition of cell proliferation that was further validated by determining the cellular damage, DNA damage and oxidative stress. Therefore, we went forward to investigate the DNA content by flow cytometry. […] We also observed a low S phase and M phase after the complex treatment (Fig. 4).
Fig. 4 Cell cycle analysis with the control U87MG cells (above) and the treatment of 0.93 μM 4d (below). TEXT PRINTED IN THE PICTURE: 4d: G0-G1(70.49%); S(21.32%); M(2.49%); Sub G1(3.48%) DOUBTS OF THE COPYIST ABOUT THIS PICTURE: 4d, G0-G1: 70.49% - blurred print, 9 could be 8 / 4d, S: 21.32% - blurred print, 3 could be 8 / 4d, M: 2.49% - blurred print, 9 could be 8 / 4d, Sub G1: 3.48% - blurred print, 3 and 8 not certain (3.46 or 3.48) / The Control plots (untreated cells, not a substance) print P2(43.61%), P3(29.04%), P4(24.36%), Sub G1(6.24%); these are left out of the lines, and their digits are blurred too
(In general: A flow cytometer gives signals particle by particle.)

Molecules are shown by their SMILES.

Consider `C1N2CN3CN1CP(C2)C3.Cc1ccc(C(C)C)cc1.Cc1ccnc2c1ccc1c(C)ccnc12.F[P-](F)(F)(F)(F)F.F[P-](F)(F)(F)(F)F.[Ru+2]` [4c, [(η^6-p-Cymene)Ru^II(κ^2-N,N-4,7dimethylphenanthroline)(PTA)]·2PF6], for which, in the series on Ct-DNA, the Change in absorbance result is given as “Hyperchromism” and the “Δε (%), % of hyperchromism/hypochromism” value is 50%. In the series on EtBr-bound DNA (Ct-DNA), the “Ksv, Stern-Volmer quenching constant” value turned out to be 180 M⁻¹ and the “Kapp, apparent DNA binding constant” value amounted to 1.38e+06 M⁻¹. Moreover, in the series on EtBr-bound DNA (Ct-DNA) (Table S2), the “Ksv, Stern-Volmer quenching constant” value stood at 180 M⁻¹ and the “Kapp, apparent DNA binding constant” value is 1.38e+06 M⁻¹. Also, in the series on zebrafish, the “accumulation in the brain” value is on record as “accumulation was significant”; the “sequestration in digestive system, kidney and notochord” value is given as “maximum sequestration”. Moreover, the “log P (partition coefficient in n-octanol/water)” value in series [1] is reported as 0.30±0.04.

Take `C1N2CN3CN1CP(C2)C3.Cc1ccc(C(C)C)cc1.F[P-](F)(F)(F)(F)F.F[P-](F)(F)(F)(F)F.[Ru+2].c1ccc(-c2ccnc3c2ccc2c(-c4ccccc4)ccnc23)cc1` [4d, [(η^6-p-Cymene)Ru^II(κ^2-N,N-4,7diphenylphenanthroline)(PTA)]·2PF6]: the G0/G1 phase with U87MG cells is roughly 70.49%.
